{"source": "patent US20110236312A1", "about": "“NUCLEOSIDE ANALOGUES USEFUL AS POSITRON EMISSION TOMOGRAPHY (PET) IMAGING AGENTS” (IMPERIAL INNOVATIONS LIMITED, priority 2008, published 2011)", "key": {"HCT116 cells": {"test_system": "HCT116 cells", "test": "Acid insoluble fraction measurements (radiotracer incorporation into DNA)", "assay_type": "cell-based", "details": "HCT116 human colon cancer cells in culture", "procedure": "Acid extraction was performed to separate radioactivity associated with small molecules, RNA, and proteins from that of DNA. HCT116 cells were cultured in triplicate in 100 mm dishes and the cells were used for DNA extraction at 24 hr. Briefly 5 ml of the assay medium containing 50 μCi of tracer was added to each dish and the dishes incubated at 37° C. for 60 min. After incubation, the medium was removed, and cells were washed twice with ice-cold phosphate-buffered saline (PBS) and 100 μl aliquots of the washings were placed in counting tubes for counting. After washing, the cells were harvested by scraping, collected into counting tubes and then centrifuged at 1200 g at 4° C. for 10 minutes. The cells were homogenized in 1 mL of ice-cold 10% perchloric acid ([…] and centrifuged. The acid-soluble fraction (supernatant) was removed and 100 μl aliquots were counted in a gamma counter. The radioactivity in the acid-insoluble precipitate (largely DNA) was counted separately."}, "HCT116 tumour": {"test_system": "HCT116 tumour", "test": "Dynamic PET imaging of tumour bearing mice", "assay_type": "in vivo", "procedure": "All animal experiments were done by licensed investigators in accordance with the United Kingdom Home Office Guidance on the Operation of the Animal (Scientific Procedures) Act 1986 and within guidelines set out by the United Kingdom Coordinating Committee for Cancer Research's Ad hoc Committee on Welfare of Animals in Experimental Neoplasia. Both tumour-bearing (Balb/c nude mice) and non-tumour bearing (Balb/c mice) animals were used. Human colon, HCT116, tumours were grown in Balb/c nu/nu mice (Harlan) as previously reported. Tumour dimensions were measured continuously using a caliper and tumour volumes were calculated by the equation: volume=(π/6)×a×b×c, where a, b, and c represent three orthogonal axes of the tumour. Mice were used when their tumours reached approximately 100 mm^3\nDynamic [^18F]FTT imaging scans were carried out on a dedicated small animal PET scanner, Siemens Inveon PET module, Siemens Molecular Imaging Inc., Knoxville, USA). The features of this instrument have been described previously. For scanning the tail veins of vehicle- or drug-treated mice were cannulated after induction of anaesthesia (isofluorane/O2/N2O). […] The count densities were averaged for all ROIs at each of the 19 time points to obtain a time versus radioactivity curve (TAC). […]"}, "[1]": {"test": "Radio-HPLC metabolite analysis", "assay_type": "in vivo", "details": "HCT116 tumour bearing mice, i.v., 30 min post injection, plasma, liver, kidney, urine, FIG. 5", "procedure": "[^18F]FTT was produced using the method described above. HCT116 tumour bearing mice were injected intravenously via the lateral tail vein with [^18F]FTT (3.7 MBq) and after 30 min post injection were sacrificed by exsanguination via cardiac puncture under isofluorane anesthesia and then tissue removed. Samples were then snap frozen using dry ice and stored until use. To plasma (0.2 ml) was added ice-cold acetonitrile (1.5 ml) and the sample centrifuged (3 min, 4° C., 15493×g). The supernatant was then decanted and evaporated to dryness using a rotary evaporator (bath temperature 40° C.). The sample was then redissolved in 10% ethanol in PBS (1.1 ml) and filtered through a 0.22 μm filter and then injected. Tumour, liver and kidney samples were homogenised in ice-cold acetonitile (1.5 ml) using an IKA Turrax homogeniser and then processed as for plasma samples. Urine samples were diluted with 10% ethanol in PBS (1.1 ml) and filtered through a 0.22 μm filter and then injected.\nHPLC conditions: Agilent 1100 series HPLC system (Agilent Technologies, Stockport, UK) equipped with a γ-RAM Model 3 gamma-detector (IN/US Systems Inc., Florida, USA) and the Laura 3 software (LabLogic, Sheffield, UK). […]"}}}
{"smiles": "Cc1cn([C@H]2C[C@H](O)[C@@H](CO)S2)c(=O)n(Cc2cn(CC[18F])nn2)c1=O", "note": "[[^18F]FTT, [^18F]N^3-((1-(2-Fluoroethyl)-1H-[1,2,3]-triazol-4-yl)methyl)-4′-thio-β-thymidine]", "values": [{"measurement": "incorporation into tumour cells in culture", "setting": "HCT116 cells", "result": "readily incorporated"}, {"measurement": "tissue pharmacokinetics (time versus radioactivity curves)", "setting": "HCT116 tumour; 60 min dynamic scan, FIG. 4", "result": "simple tissue pharmacokinetics"}, {"measurement": "localisation on PET images", "setting": "HCT116 tumour; i.v. via tail vein, FIG. 3", "result": "localisation in tumour, kidney, liver and the early part of the small intestines"}, {"measurement": "metabolic stability", "setting": "[1]", "result": "metabolically stable in mice"}]}
